Results taken from patent publication US20230116703A1, “NOVEL ERGOLINES AND METHODS OF TREATING MOOD DISORDERS” (priority 2021, published 2023).

What was measured:
5-HT2A receptor [1] = target: T1, 5-HT2A receptor (Homo sapiens, UniProt P28223); test: biochemical; assay type: binding; conditions: 1 nM [^3H]ketanserin, HEK293 stable cell line; read-out: 5-HT2A Receptor Ki (nM) ([^3H]ketanserin)
T1 construct: host or cells: HEK293
Protocol: Affinity of the test compounds for the 5-HT2A receptor was determined in radioligand binding experiments with [^3H]ketanserin by WuXi AppTec (Hong Kong) Limited, using methods adapted from the literature and under conditions described in Table 1.

5-HT2A receptor [2] = target: T1, 5-HT2A receptor; test: cell-based; assay type: cell-based; conditions: for EC50 / 5-HT2A % Act @ Max Dose: Ca^2+ flux, agonist; for EC50: read-out: 5-HT2A EC50
Protocol: (§1) Functional Assays at 5-HT2A, 5-HT2B, and 5-HT1A. Agonist activity at 5-HT2A, 5-HT2B, and 5-HT1A receptors was determined using a FLIPR Ca^2+ flux assay at WuXi AppTec (Hong Kong) Limited according to their standard protocols. Briefly, stably transfected cells expressing the receptor of interest (HEK293 for 5-HT2A and 5-HT2B; CHO cells for 5-HT1A) were grown and plated in a 384 well plate and incubated at 37° C. and 5% CO2 overnight. A solution of 250 mM probenecid in 1 mL FLIPR assay buffer was prepared fresh. This was combined with a fluorescent dye (Fluo-4 Direct™) to make a final assay concentration of 2.5 mM. […] The fluorescent dye was then added to the assay plate along with assay buffer to a final volume of 40 μL. The cell plate was incubated for 50 min at 37° C. and 5% CO2 and placed into the FLIPR Tetra along with the compound plate. 10 μL of references and compounds were then transferred from the compound plate into the cell plate and the fluorescent signal was read.

5-HT1A receptor = target: T2, 5-HT1A receptor (Homo sapiens, UniProt P08908); test: cell-based; conditions: Ca^2+ flux, agonist; for EC50: read-out: 5-HT1A EC50
T2 construct: host or cells: CHO cells
T2 sequence (P08908 1-422): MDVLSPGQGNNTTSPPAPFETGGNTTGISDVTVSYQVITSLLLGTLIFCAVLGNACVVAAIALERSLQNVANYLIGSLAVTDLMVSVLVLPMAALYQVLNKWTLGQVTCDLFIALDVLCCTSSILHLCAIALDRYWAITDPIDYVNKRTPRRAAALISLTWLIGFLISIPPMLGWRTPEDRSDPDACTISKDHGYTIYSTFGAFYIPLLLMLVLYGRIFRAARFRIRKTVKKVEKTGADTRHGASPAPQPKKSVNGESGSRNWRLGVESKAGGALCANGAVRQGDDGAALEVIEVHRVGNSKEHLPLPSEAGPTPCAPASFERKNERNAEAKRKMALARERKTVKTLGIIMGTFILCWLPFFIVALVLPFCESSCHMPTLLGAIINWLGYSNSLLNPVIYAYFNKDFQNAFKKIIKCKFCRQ
Protocol: as §1

5-HT2B receptor = target: T3, 5-HT2B receptor (Homo sapiens, UniProt P41595); test: cell-based; conditions: Ca^2+ flux, agonist; for EC50: read-out: 5-HT2B EC50
T3 construct: host or cells: HEK293
T3 sequence (P41595 whole entry): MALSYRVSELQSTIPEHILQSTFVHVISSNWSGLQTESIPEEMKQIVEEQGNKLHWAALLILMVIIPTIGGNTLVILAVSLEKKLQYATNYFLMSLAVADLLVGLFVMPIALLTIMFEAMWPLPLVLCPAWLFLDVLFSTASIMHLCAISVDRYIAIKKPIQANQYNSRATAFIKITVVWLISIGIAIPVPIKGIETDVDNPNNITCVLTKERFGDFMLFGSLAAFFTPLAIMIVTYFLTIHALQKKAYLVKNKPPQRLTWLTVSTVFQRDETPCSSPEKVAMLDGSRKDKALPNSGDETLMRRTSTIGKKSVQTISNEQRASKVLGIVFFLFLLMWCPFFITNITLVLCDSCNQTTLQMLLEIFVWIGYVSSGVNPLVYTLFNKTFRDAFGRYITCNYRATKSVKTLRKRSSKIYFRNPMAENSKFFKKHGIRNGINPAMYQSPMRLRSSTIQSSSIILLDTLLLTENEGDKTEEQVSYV
Protocol: as §1

5-HT1B receptor = 5-HT1B receptor (Homo sapiens, UniProt P28222); test: cAMP accumulation agonist assay at 5-HT1B; assay type: cell-based; conditions: cAMP, agonist; for EC50: read-out: 5-HT1B EC50
Sequence of 5-HT1B receptor (P28222 whole entry): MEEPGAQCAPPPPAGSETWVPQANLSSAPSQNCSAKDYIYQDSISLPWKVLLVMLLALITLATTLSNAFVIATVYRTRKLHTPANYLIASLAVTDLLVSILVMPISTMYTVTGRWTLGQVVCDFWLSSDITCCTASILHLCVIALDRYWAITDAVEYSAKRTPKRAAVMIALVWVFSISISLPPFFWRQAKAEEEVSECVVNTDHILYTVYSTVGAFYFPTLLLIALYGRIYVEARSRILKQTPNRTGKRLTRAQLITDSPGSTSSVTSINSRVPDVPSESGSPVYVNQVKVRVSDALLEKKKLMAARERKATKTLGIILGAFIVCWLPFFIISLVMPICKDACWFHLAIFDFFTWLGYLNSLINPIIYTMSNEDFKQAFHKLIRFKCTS
Protocol: Disclosed compounds were tested for agonist activity at several serotonin receptor subtypes (5-HT2A, […], 5-HT2C, and 5-HT1A) using Ca^2+ flux functional assays and the 5-HT1B receptor using a cAMP accumulation assay, with the results summarized in Table 4. […] Potent agonist activity was also observed at the other serotonin receptors tested, although the selectivity profile among the receptors varied across compounds. […]. However, at the same time, the N-propyl compounds were more efficacious agonists at 5-HT2B than the corresponding N-methyl compounds. The selectivity of disclosed compounds for 5-HT2A over 5-HT2C and 5-HT1A was less predictable and varied widely across compounds, ranging from ˜1:6 to ˜20:1 (2C/2A) in the case of 5-HT2C and from ˜1:4 to >100:1 (1A/2A) in the case of 5-HT1A. […] An azetidinyl amide substituent tended to increase potency at 5-HT1A relative to 5-HT2A.
Functional Assay at 5-HT1B. Agonist activity at 5-HT1B was determined using a cAMP accumulation protocol at WuXi AppTec (Hong Kong) Limited according to their standard protocols. Briefly, stably transfected cells were plated in an OptiPlate-384 well plate, incubated at RT for 60 mins, and cAMP standard solution (800 nM, 10 μL) was added to the blank well. Then, 10 μL detection reagent was added to each well, the plate incubated for 60 mins at RT, and the plate read using EnVision.

[3] = Metabolic stability in human liver microsomes (HLM); assay type: in vitro ADME; conditions: for t1/2: 1 μM, 0.50 mg protein per mL; for microsomal CLint at 1 μM / half-life at 1 μM: both sexes, human, pooled human liver microsomes, pH 7.4, 0.50 mg protein per mL
Text: HLM Stability. Pooled HLM from adult male and female donors (Corning 452117) were used.

[4] = Metabolic stability in mouse liver microsomes (MLM); assay type: in vitro ADME; conditions: 0.50 mg protein per mL; for t1/2: MLM (CD-1), 1 μM; for microsomal CLint at 1 μM: mouse, pooled mouse liver microsomes, pH 7.4, MLM (CD-1)
Text: MLM Stability Pooled MLM from CD-1 mice (BIOIVT M00501) were used.

[5] = Metabolic stability in rat liver microsomes (RLM); conditions: for t1/2: RLM, 0.50 mg protein per mL; for microsomal CLint at 1 μM: both, rat, pooled rat liver microsomes, pH 7.4

T1 sequence (P28223 whole entry): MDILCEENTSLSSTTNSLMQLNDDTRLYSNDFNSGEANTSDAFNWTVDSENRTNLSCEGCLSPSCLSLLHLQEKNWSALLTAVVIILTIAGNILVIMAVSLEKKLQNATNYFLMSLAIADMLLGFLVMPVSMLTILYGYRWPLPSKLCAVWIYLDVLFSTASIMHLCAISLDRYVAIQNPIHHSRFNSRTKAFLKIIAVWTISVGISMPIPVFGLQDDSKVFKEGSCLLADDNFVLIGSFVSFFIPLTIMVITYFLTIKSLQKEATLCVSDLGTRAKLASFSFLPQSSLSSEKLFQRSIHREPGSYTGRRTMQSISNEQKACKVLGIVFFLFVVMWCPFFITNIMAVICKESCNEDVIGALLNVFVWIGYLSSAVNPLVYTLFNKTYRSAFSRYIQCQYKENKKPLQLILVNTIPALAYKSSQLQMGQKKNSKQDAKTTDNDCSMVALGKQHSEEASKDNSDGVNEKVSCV

SMILES | Ki (5-HT2A receptor [1]) [nM] | EC50 (5-HT2A receptor [2]) [nM] | EC50 (5-HT1A receptor) [nM] | EC50 (5-HT2B receptor) [nM] | EC50 (5-HT1B receptor) [nM] | t1/2 [3] [min] | microsomal CLint at 1 μM [3] [µL/min/mg] | t1/2 [4] [min] | microsomal CLint at 1 μM [4] [µL/min/mg] | t1/2 [5] [min] | microsomal CLint at 1 μM [5] [µL/min/mg] | 5-HT1A % Act @ Max Dose (5-HT1A receptor) [%] | agonist activity at serotonin receptors (in words) (5-HT2A receptor [2]; Ca^2+ flux / cAMP functional assays, receptors tested) | 5-HT2A % Act @ Max Dose (5-HT2A receptor [2]) [%] | 5-HT2B % Act @ Max Dose (5-HT2B receptor) [%] | 5-HT1B % Act @ Max Dose (5-HT1B receptor) [%] | half-life at 1 μM [3] [min]
CCN(CC)C(=O)[C@@H]1C=C2c3cccc4[nH]cc(c34)C[C@H]2N(Cc2ccccc2O)C1 [Compound 16, (6aR,9R)—N,N-diethyl-7-(2-hydroxybenzyl)-4,6,6a,7,8,9-hexahydroindolo[4,3-fg]quinoline-9-carboxamide] | 2.18 | 547 | > 10000 | > 10000 | 682 | 4.9 | 286 | 1.3 | 1050 | 2.2 | 616 | – | – | – | – | – | –
CCN(CC)C(=O)[C@@H]1C=C2c3cccc4[nH]cc(c34)C[C@H]2N(Cc2cccc(OC)c2)C1 [Compound 18, (6aR,9R)—N,N-diethyl-7-(3-methoxybenzyl)-4,6,6a,7,8,9-hexahydroindolo[4,3-fg]quinoline-9-carboxamide] | 3.41 | 227 | > 10000 | > 10000 | 1780 | 13.6 | 102 | 2.6 | 524 | 5.3 | 263 | – | – | – | – | – | –
CCN(CC)C(=O)[C@@H]1C=C2c3cccc4[nH]cc(c34)C[C@H]2N(Cc2ccc(OC)cc2)C1 [Compound 19, (6aR,9R)—N,N-diethyl-7-(4-methoxybenzyl)-4,6,6a,7,8,9-hexahydroindolo[4,3-fg]quinoline-9-carboxamide] | 5.58 | 2960 | > 10000 | > 10000 | 5850 | 16.8 | 82.7 | 7.2 | 193 | 10.0 | 139 | −0.65 | – | – | – | – | –
CCN(CC)C(=O)[C@@H]1C=C2c3cccc4[nH]c(Br)c(c34)C[C@H]2N(CCC(F)(F)F)C1 [Compound 42, (6aR,9R)-5-bromo-N,N-diethyl-7-(3,3,3-trifluoropropyl)-4,6,6a,7,8,9-hexahydroindolo[4,3-fg]quinoline-9-carboxamide] | 1.84 | > 1000 | > 10000 | > 10000 | > 10000 | – | 125 | – | – | – | – | 9.13 | no agonist activity | 8.29 | 2.58 | 33.13 | 11.1
CC[C@@H](C)NC(=O)[C@@H]1C=C2c3cccc4[nH]c(Br)c(c34)C[C@H]2N(C)C1 [Compound 43, (6aR,9R)-5-bromo-N—((R)-sec-butyl)-7-methyl-4,6,6a,7,8,9-hexahydroindolo[4,3-fg]quinoline-9-carboxamide] | 1.13 | 118 | > 10000 | > 10000 | 311 | – | 56 | – | – | – | – | 6.30 | – | 39.32 | 1.00 | 83.76 | 24.8
CCC(CC)NC(=O)[C@@H]1C=C2c3cccc4[nH]c(Br)c(c34)C[C@H]2N(C)C1 [Compound 44, (6aR,9R)-5-bromo-N-(pentan-3-yl)-7-methyl-4,6,6a,7,8,9-hexahydroindolo[4,3-fg]quinoline-9-carboxamide] | 0.76 | 129 | > 10000 | > 10000 | 1270 | – | 153 | – | – | – | – | 16.56 | – | 29.90 | 15.68 | 68.53 | 9
CCC[C@@H](C)NC(=O)[C@@H]1C=C2c3cccc4[nH]c(Br)c(c34)C[C@H]2N(C)C1 [Compound 45, (6aR,9R)-5-bromo-N—((R)-pentan-2-yl)-7-methyl-4,6,6a,7,8,9-hexahydroindolo[4,3-fg]quinoline-9-carboxamide] | 0.38 | 133 | > 10000 | > 10000 | 245 | – | 176 | – | – | – | – | 12.53 | – | 22.28 | −0.31 | 87.10 | 7.9
CCCN1C[C@H](C(=O)N[C@H](C)CC)C=C2c3cccc4[nH]c(Br)c(c34)C[C@H]21 [Compound 46, (6aR,9R)-5-bromo-N—((R)-sec-butyl)-7-propyl-4,6,6a,7,8,9-hexahydroindolo[4,3-fg]quinoline-9-carboxamide] | 1.03 | 110 | 707 | 788 | 1180 | – | 427 | – | – | – | – | 69.48 | – | 69.48 | 79.00 | 78.76 | 3.2
CCCN1C[C@H](C(=O)N2[C@@H](C)C[C@@H]2C)C=C2c3cccc4[nH]c(Br)c(c34)C[C@H]21 [Compound 47, ((6aR,9R)-5-bromo-7-propyl-4,6,6a,7,8,9-hexahydroindolo[4,3-fg]quinolin-9-yl)((2S,4S)-2,4-dimethylazetidin-1-yl)methanone] | 1.38 | 117 | 93.6 | 1440 | 4960 | – | 249 | – | – | – | – | 62.15 | – | 57.01 | 87.01 | 76.22 | 5.6
CN1C[C@H](C(=O)N2CCCC2)C=C2c3cccc4[nH]cc(c34)C[C@H]21 [Int22, ((6aR,9R)-7-methyl-4,6,6a,7,8,9-hexahydroindolo[4,3-fg]quinolin-9-yl)(pyrrolidin-1-yl)methanone] | 14.9 | 21.1 | 8.82 | 55.2 | 7.38 | – | < 9.6 | – | – | – | – | 103.7 | – | 89.65 | 21.35 | 94.25 | > 145
